# Results reported in ChEMBL document CHEMBL1909508, “Structure-activity relationship study of arylsulfonylimidazolidinones as anticancer agents” (Bioorg Med Chem Lett, 2011).
# pIC50: −log10 of the molar value.
# Assays:
# HCT-116 = assay: Cytotoxicity against human HCT116 cells by MTT assay; type: functional, cell-based
# [1] = Inhibition of tubulin polymerization
# NCI-H460 = assay: Cytotoxicity against human NCI-H460 cells by MTT assay; type: functional, cell-based
# A549 = assay: Cytotoxicity against human A549 cells by MTT assay; type: functional, cell-based
pIC50 [1],Structure (SMILES),pIC50 (HCT-116),pIC50 (NCI-H460),pIC50 (A549)
5.22,CCOC(=O)Nc1ccc(S(=O)(=O)N2C[C@H](c3ccccc3)NC2=O)cc1C,7.15,7.15,7.30
,CCOC(=O)Nc1ccc(S(=O)(=O)N2C[C@H](c3ccccc3)NC2=O)cc1CC,7.15,7.15,7.22
,CCOC(=O)Nc1ccc(S(=O)(=O)N2C[C@H](c3ccccc3)NC2=O)cc1F,5.30,5.35,5.42
,CCOC(=O)Nc1ccc(S(=O)(=O)N2C[C@H](c3ccccc3)NC2=O)cc1Cl,6.70,7.70,7.70
,CCc1cc(S(=O)(=O)N2C[C@H](c3ccccc3)NC2=O)ccc1NC(=O)OC,6.70,6.52,6.60
,CCCOC(=O)Nc1ccc(S(=O)(=O)N2C[C@H](c3ccccc3)NC2=O)cc1CC,7.22,7.22,7.22
,CCc1cc(S(=O)(=O)N2C[C@H](c3ccccc3)NC2=O)ccc1NC(=O)OC(C)C,7.22,7.22,7.22
,CCCCOC(=O)Nc1ccc(S(=O)(=O)N2C[C@H](c3ccccc3)NC2=O)cc1CC,6.70,6.70,6.70
,CCc1cc(S(=O)(=O)N2C[C@H](c3ccccc3)NC2=O)ccc1NC(=O)OCC(C)C,7.22,7.10,7.15
,CCc1cc(S(=O)(=O)N2C[C@H](c3ccccc3)NC2=O)ccc1NC(=O)NC(C)C,7.22,7.15,7.00
,CCc1cc(S(=O)(=O)N2C[C@H](c3ccccc3)NC2=O)ccc1NC(=O)NC1CCCCC1,6.52,6.52,6.30
,CCc1cc(S(=O)(=O)N2C[C@H](c3ccccc3)NC2=O)ccc1NC(=O)c1ccc([N+](=O)[O-])cc1,6.30,6.10,6.15
,CCc1cc(S(=O)(=O)N2C[C@H](c3ccccc3)NC2=O)ccc1NC(=O)c1ccc(N)cc1,6.34,6.17,6.66
,CCOC(=O)Nc1ccc(S(=O)(=O)N2C[C@H](c3ccccc3)NC2=O)c(C)c1C,6.46,6.52,6.52
,CCOC(=O)Nc1c(C)cc(S(=O)(=O)N2C[C@H](c3ccccc3)NC2=O)cc1C,< 5.00,< 5.00,< 5.00
,CCOC(=O)Nc1ccc(S(=O)(=O)N2C(=O)N[C@@H](c3ccccc3)C2C)cc1C (some centres not stated),5.26,5.30,5.30
,CCOC(=O)Nc1ccc(S(=O)(=O)N2C(=O)N[C@@H](c3ccccc3)C2C)cc1Cl (some centres not stated),5.26,5.22,5.22
,Cc1cc(S(=O)(=O)N2C(=O)N[C@@H](c3ccccc3)C2C)ccc1NC(=O)c1ccc([N+](=O)[O-])cc1 (some centres not stated),< 5.00,< 5.00,< 5.00
,Cc1cc(S(=O)(=O)N2C(=O)N[C@@H](c3ccccc3)C2C)ccc1NC(=O)c1ccc(N)cc1 (some centres not stated),< 5.00,< 5.00,< 5.00
,CC1[C@H](c2ccccc2)NC(=O)N1S(=O)(=O)c1ccc(NC(=O)c2ccc([N+](=O)[O-])cc2)c(Cl)c1 (some centres not stated),< 5.00,< 5.00,< 5.00
,CC1[C@H](c2ccccc2)NC(=O)N1S(=O)(=O)c1ccc(NC(=O)c2ccc(N)cc2)c(Cl)c1 (some centres not stated),< 5.00,< 5.00,< 5.00
5.26,Nc1ccc(C(=O)Nc2ccc(S(=O)(=O)N3C[C@H](c4ccccc4)NC3=O)cc2Cl)cc1,,,
,COc1cccc2c1C(=O)c1c(O)c3c(c(O)c1C2=O)C[C@@](O)(C(=O)CO)C[C@@H]3O[C@H]1C[C@H](N)[C@H](O)[C@H](C)O1 [DOXORUBICIN],6.40,6.34,
